{"source": "patent US20190358264A1", "about": "“METHODS OF TREATING DISEASES ASSOCIATED WITH ILC2 CELLS” (Limm Therapeutics, SA, priority 2016, published 2019)", "key": {"intestine ILC2": {"test_system": "intestine ILC2", "assay": "Ki67 expression in intestine ILC2 after in vivo administration of NmU23", "parameters": "species or system mouse", "details": "NmU23 4 g/day during 2 days (FIG. 10b)", "method": "FIGS. 10a-10d: FIG. 10a, Ki67 expression in intestinal ILC2s after an overnight in vitro stimulation with NmU23 alone (100 ng/mL, Phoenix Pharmaceutical) or NmU23 together with the survival cytokines Interleukin (IL)-2 and/or IL-7 (10 ng/mL). FIG. 10b, Ki67 expression in intestine ILC2 after in vivo administration of NmU23 (4 g/day during 2 days). n=5. FIG. 10c, ILC2-derived type 2 cytokines (IL-5, IL-13 and Amphiregulin (Areg)) in sorted intestine ILC2 after an overnight stimulation with NmU23, mouse recombinant IL-25 or IL-33 (R&D) (10, 50 and 100 ng/mL). Negative control: unstimulated ILC2, Positive control: ILC2 activated with phorbol 12-myristate 13-acetate (PMA, 50 ng/ml) plus ionomycin (500 ng/ml). n=3. FIG. 10d, Dot plots representative of the cytokine production with increasing dose of NmU23, rIL-25 and rIL-33. *P<0.05; **P<0.01; ***P<0.001; ****P<0.0001; ns not significant."}, "[1]": {"test_system": "Nippostrongylus brasiliensis", "assay": "NmU23 treatment of N. brasiliensis infected mice", "format": "in vivo, mouse", "method": "FIGS. 12a-12f: (FIGS. 12a-12c) Mice were infected with N. brasiliensis larvae and treated with NmU23 peptide (8 g/day) or PBS (control). Lungs were analysed at day 2 post-infection. FIG. 12a, ILC2 response in lungs from NmU23 treated mice (n=5) compared to control (n=5). FIG. 12b, Burden of infection in lungs of infected mice treated with PBS (n=5) or NmU23 (n=5). FIG. 12c, Pulmonary hemorrhage in lung of infected mice treated with NmU23 compared to control. (FIGS. 12d-12f) Mice were infected with N. brasiliensis larvae and treated with NmU23 peptide (8 g/day) or PBS (control). Lungs and small intestine were analysed at day 6 post-infection. FIG. 12d, Neutrophils and eosinophils infiltrate in broncho-alveolar lavage (BAL) in infected mice treated with NmU23 versus PBS. Control n=5; NmU23 n=5. FIG. 12e, Mastocytes and Macrophages infiltrate in broncho-alveolar lavage (BAL) in infected mice treated with NmU23 versus PBS. Control n=5; NmU23 n=5. FIG. 12f, Burden of infection in small intestine of infected mice treated with PBS (n=5) or NmU23 (n=5). Error bars show s.e.m. *P<0.05; **P<0.01; ***P<0.001; ****P<0.0001; ns not significant.\nFor in vitro experiments, purified lung and small intestine lamina propria ILC2s were FBS starved for 2 hours prior to stimulation and cultured in complete RPMI (supplemented with 10% foetal bovine serum (FBS), 1% hepes, sodium pyruvate, glutamine, streptomycin and penicillin) at 37° C. For mRNA analysis, ILC2s were stimulated overnight with recombinant mouse Neuromedin U 23 peptide (NmU23, 100 ng/mL; Phoenix pharmaceuticals). Both NmU23-stimulated and control ILC2s were cultured in the presence of IL-2 and IL-7 (10 ng/mL; Peprotech). ILC2s were lysed using RLT buffer (Qiagen). For cytokine protein analysis, ILC2s were incubated exclusively with brefeldin A (eBioscience) for 12 hours prior to intracellular staining. For in vivo experiments, B6 mice were injected intraperitoneal with NmU23 peptide (2 g/day) during Nippostrongylus brasiliensis infection or with a single dose of NmU23 (20 μg) and analyzed after 8 hours. Control mice were treated with PBS alone.\nNippostrongylus brasiliensis was maintained by monthly passages in Lewis rats as previously described^34. Infective (iL3) worms were kindly provided by Nicola Harris (Lausanne, Switzerland). iL3 larvae were treated for 15 minutes with penicillin/streptomycin (300 U/mL; Thermo Fisher Scientific), gentamicin (1.5 mg/mL; Sigma) and tetracyclin (30 μg/mL; Sigma), washed with PBS and counted under a stereomicroscope. Mice were injected subcutaneously with 500 iL3 in 200 μL of sterile PBS using a 21 G needle. Mice were sacrificed at day 2 post-infection and lungs were collected and analysed.\nLung parasite burden was quantified in finely minced lungs and as previously described^34. Lung were placed on sterile cheesecloth and suspended in a 50 mL tube containing PBS at 37° C. for at least 4 hours. Viable worms that migrate out into the bottom of the tube were counted under a stereomicroscope (steREO Lumar V12; Zeiss).\nMice were sacrificed by cervical dislocation, and caudal lobe of the right lung was harvested, fixed in 10% neutral buffered formalin and processed for paraffin embedding. […] Slides were analyzed by a pathologist blinded to experimental groups and images were acquired in a Leica DM2500 microscope, coupled with a Leica MC 170 HD microscope camera. […]"}, "NFAT": {"test_system": "NFAT", "assay": "NFAT translocation in ILC2 by confocal microscopy", "format": "cell-based, mouse", "details": "NmU23 100 ng/mL, 90 minutes, Lamina Propria ILC2, anti-NFAT2 staining (FIG. 11c)", "method": "FIGS. 11a-11b: ILC2 were FBS deprived for 2 hours prior to treatment with either (FIG. 11a) 11R-VIVIT (inhibits NFAT activation) (10 μM) or (FIG. 11b) cyclosporin A (CsA, […]). Expression of type 2 cytokines were measured by quantitative RT-PCR (FIGS. 11a,11b). n=3-6. FIG. 11c, Deprivated ILC2 from Lamina Propria were stimulated 90′ with NmU23 (100 ng/mL), fixed, permeabilized and stained with anti-NFAT2 monoclonal antibody (abcam). Cells were analyzed by confocal microscopy. *P<0.05; **P<0.01; ***P<0.001; ****P<0.0001; ns not significant."}, "ERK1/2": {"test_system": "ERK1/2", "assay": "ERK phosphorylation in purified ILC2s activated with NmU23", "format": "cell-based, mouse", "details": "NmU23 100 ng/mL, 10 minutes, with IL-2 and IL-7", "method": "Purified ILC2s from small intestine and lung were FBS starved for 2 hours before in vitro activation with NmU23 at 37° C. To test for ERK phosphorylation (Cell Signaling Technology), purified ILC2s were activated with NmU23 (100 ng/mL; Phoenix pharmaceuticals) in the presence of IL-2 and IL-7 (10 ng/mL; Peprotech) for 10 minutes prior to intracellular staining. To test ERK, calcineurin and NFAT activation, ILC2s were cultured for 1 hour with their respective inhibitor and then stimulated with NmU23 overnight before mRNA expression analysis. ERK inhibitor—PD98059 (Sigma); Calcineurin inhibitor—FK506 (Tocris Bioscience); NFAT inhibitor—11R-VIVIT (Tocris Bioscience)."}}}
{"substance": "recombinant mouse Neuromedin U 23 peptide (FKAEYQSPSVGQSKGYFLFRPRN; listed as Mus musculus) [NmU23, NMUR1 agonist neuropeptide, Phoenix pharmaceuticals]", "values": [{"measurement": "ILC2 proliferation as measured by Ki67, in vivo", "setting": "intestine ILC2", "result": "increased ILC2 proliferation"}, {"measurement": "lung haemorrhage in N. brasiliensis infected mice", "setting": "[1]; NmU23 8 g/day vs PBS, day 2 post-infection", "result": "reduced lung haemorrhage"}, {"measurement": "ILC2-derived IL-5, IL-13 and Amphiregulin in lungs of N. brasiliensis infected mice", "setting": "[1]; NmU23 8 g/day vs PBS, day 2 post-infection (FIG. 12a)", "result": "increased ILC2-derived IL-5, IL-13 and Amphiregulin"}, {"measurement": "lung parasite burden in N. brasiliensis infected mice", "setting": "[1]; NmU23 8 g/day vs PBS, day 2 post-infection (FIG. 12b)", "result": "decreased"}, {"measurement": "intestinal parasite burden in N. brasiliensis infected mice", "setting": "[1]; NmU23 8 g/day vs PBS, small intestine, day 6 post-infection (FIG. 12f)", "result": "decreased"}, {"measurement": "eosinophil infiltrates in the lung of N. brasiliensis infected mice", "setting": "[1]; NmU23 intraperitoneal 2 g/day vs PBS, lungs at 48 hours", "result": "increased eosinophil infiltrates"}, {"measurement": "translocation of NFAT in ILC2", "setting": "NFAT", "result": "efficient translocation of NFAT from the cytoplasm to the nucleus"}, {"measurement": "ERK1/2 activation (pERK) in ILC2s", "setting": "ERK1/2", "result": "immediate and efficient ERK1/2 activation"}]}
